Tests used:
albumin = albumin (Homo sapiens, UniProt P02768); assay: Binding of corrole complexes to albumin; conditions: preliminary experiments
Description: (§1) Issues regarding biodistribution, transport mechanisms, accumulation in specific organs, and the eventual elimination of administered compounds are among the prime concerns when it comes to real life utilization of potential drugs. This can be addressed by several and quite different means, including in vitro, in vivo and ex-vivo examinations. One way to predict distribution is via examination of the binding of the corroles to circulating proteins that might act as transporters, similar to experiment performed previously by the inventors with metal complexes of corrole 1C (Scheme 1), which spontaneously form tightly bound non-covalent bioconjugates with HDL (Haber et al., 2007), albumin (Mahammed et al., 2004), and transferrin (Haber and Gross. 2007) (listed in increasing order of affinity), as well as with semi-synthetic proteins (Agadjanian et al., 2006). […] A more direct approach relies on the strong fluorescence of corroles that are not chelated by transition metals (no metal such as in corroles 1C and 2C, or using corrole Ga/Al complexes such as 1C-Ga). This feature is used for testing cell entry via confocal microscopy (Agadjanian et al., 2006), without the need of attaching a fluorescent tag. Furthermore, it may even be used for whole animal imaging purposes, as shown in Example 4 hereinabove. […]

SH-SY5Y cells = format: cell-based; conditions: up to 50 μM; data not shown
[1] = Peroxynitrite decomposition rates by manganese corroles (Example 2); format: biochemical; conditions: 385 μM peroxynitrite, pH 7.4, 25° C., absorbance at 302 nm; Table 2
Experimental: The investigations were performed by examining the decay of 385 μM peroxynitrite at pH 7.4 and 25° C. in the presence and absence of various amounts of Mn corrole catalysts 2C-Mn, 2C′-Mn, 2C″-Mn, 3C-Mn and 4C-Mn. The differences between 2C-Mn, 2C′-Mn, and 2C″-Mn is in the identity of the 10-aryl group, which is C6F5, para-anisyl, and phenyl, respectively. The results (one example using 4C-Mn is shown in FIG. 1) were obtained by monitoring changes in absorbance at 302 nm, the λmax of peroxynitrite. The catalytic performances of five of the above compounds were tested; and the thus elucidated kcat values are presented in Table 2. Importantly, in sharp contrast with the corroles, none of the structurally similar manganese (III) porphyrin complexes affected the decomposition of peroxynitrite by any extent (not shown).

transferrin = transferrin (Homo sapiens, UniProt P02787); assay: Binding of corrole complexes to transferrin; conditions: preliminary experiments
Chain of transferrin (P02787 20-698, species assumed): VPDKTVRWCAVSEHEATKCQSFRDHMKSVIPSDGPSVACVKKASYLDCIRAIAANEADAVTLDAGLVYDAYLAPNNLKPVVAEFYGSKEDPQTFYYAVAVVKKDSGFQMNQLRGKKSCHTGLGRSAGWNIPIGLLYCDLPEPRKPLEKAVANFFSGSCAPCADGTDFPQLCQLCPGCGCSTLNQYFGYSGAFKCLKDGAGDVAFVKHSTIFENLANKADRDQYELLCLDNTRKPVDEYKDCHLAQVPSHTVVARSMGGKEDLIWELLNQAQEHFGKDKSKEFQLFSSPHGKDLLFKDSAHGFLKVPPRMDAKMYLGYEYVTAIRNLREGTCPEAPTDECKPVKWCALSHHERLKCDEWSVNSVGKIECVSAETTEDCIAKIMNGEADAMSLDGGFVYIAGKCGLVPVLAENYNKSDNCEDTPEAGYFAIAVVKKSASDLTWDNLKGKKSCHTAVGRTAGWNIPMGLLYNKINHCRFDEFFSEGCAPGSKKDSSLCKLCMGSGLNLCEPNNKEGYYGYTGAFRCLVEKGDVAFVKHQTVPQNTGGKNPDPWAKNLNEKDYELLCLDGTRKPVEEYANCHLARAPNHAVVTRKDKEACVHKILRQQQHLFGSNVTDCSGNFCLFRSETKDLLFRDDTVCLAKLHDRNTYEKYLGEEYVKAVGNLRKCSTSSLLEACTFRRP
Description: as §1

NSC-34 G93A cells = assay: Cell culture model of familial ALS, NSC-34 cells expressing mutant G93A-SOD1; format: cell-based, mouse; conditions: 48 h induction; even at a concentration as low as 0.5 μM
Experimental: Mutant-superoxide dismutase (G93A-SOD1) is associated with familial amyotrophic lateral sclerosis (FALS). A cell culture model of FALS was implemented by stably transfecting mouse motoneuronal NSC-34 cells or SH-SY5Y cells, to express mutant G93A-SOD1 at levels approximating those seen in the human disease. NSC-34 cells or SH-SY5Y cells were incubated in Dulbecco's modified Eagle's/F-12 medium supplemented with 10% FCS tetracycline-free (FCS Tet-free; Clontech), at 37° C. in an atmosphere of 5% CO2 in air. These cell lines are stably transfected with the pTet-ON plasmid (Clontech, Palo Alto, Calif.) coding for the reverse tetracycline controlled transactivator (rtTA). Induction of mutant SOD1 expression was obtained by shifting nonconfluent cultures into growth medium containing 1% N2 supplement (Invitrogen, Carlsbad, Calif.) and […] doxocyclin for 48 h in the presence or absence of corrole 1C-Fe and 5C-Fe.

clonal beta cell lines = assay: Toxicity of corrole alone (without H2O2) on clonal beta cell lines; format: cell-based; conditions: without H2O2, concentrations up to 50 μM

Chain of albumin (P02768 25-609): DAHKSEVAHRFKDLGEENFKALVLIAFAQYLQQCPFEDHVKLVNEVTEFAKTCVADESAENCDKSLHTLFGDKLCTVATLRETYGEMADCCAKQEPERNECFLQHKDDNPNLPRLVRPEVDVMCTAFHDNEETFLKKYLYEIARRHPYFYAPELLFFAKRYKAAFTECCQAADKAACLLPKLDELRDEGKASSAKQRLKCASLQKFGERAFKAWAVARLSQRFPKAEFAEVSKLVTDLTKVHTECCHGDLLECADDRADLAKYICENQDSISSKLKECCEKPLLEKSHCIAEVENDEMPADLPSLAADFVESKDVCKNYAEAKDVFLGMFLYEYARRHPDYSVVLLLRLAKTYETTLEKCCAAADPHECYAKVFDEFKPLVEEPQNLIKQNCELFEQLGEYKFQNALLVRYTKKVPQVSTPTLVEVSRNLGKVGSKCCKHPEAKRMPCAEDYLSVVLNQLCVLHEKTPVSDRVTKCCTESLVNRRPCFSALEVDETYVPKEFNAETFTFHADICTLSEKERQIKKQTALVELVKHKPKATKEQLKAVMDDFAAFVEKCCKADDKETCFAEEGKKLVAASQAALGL

| Compound | binding to albumin (albumin) | preventing H2O2-mediated cytotoxicity (SH-SY5Y cells) | kcat, peroxynitrite decomposition rate [1] [M⁻¹ s⁻¹] | binding to transferrin (transferrin) | cell viability of induced mutant cells (NSC-34 G93A cells) | toxicity when given alone (clonal beta cell lines) |
| --- | --- | --- | --- | --- | --- | --- |
| C[n+]1ccc(C2=C3C=CC4=[N+]3[Mn-]35[n]6c2ccc6-c2ccc([n]23)C(c2cc[n+](C)cc2)=c2ccc([n]25)=C4c2c(F)c(F)c(F)c(F)c2F)cc1.[I-].[I-] (stereo not drawn) [2C-Mn, 5,15-bis(4-N-methyl-pyridilium)-10-pentafluorophenyl-corrolato manganese(III) diiodide salt] | do not bind to albumin | not effective | 150000 | still do so for transferrin | – | – |
| O=S(=O)(O)c1cc2[n]3c1C(c1c(F)c(F)c(F)c(F)c1F)=C1C=CC4=[N+]1[Fe-]31[n]3c(cc(S(=O)(=O)O)c3-2)C(c2c(F)c(F)c(F)c(F)c2F)=c2ccc([n]21)=C4c1c(F)c(F)c(F)c(F)c1F (stereo not drawn) [1C-Fe, 2,17-bis(sulfonato)-5,10,15-tris(pentafluorophenyl)-corrolato iron(III)] | – | – | – | – | significantly improved cell viability | shows no toxicity |
